Laboratory results reported in patent US6395893B1, “Crystallization of lactitol, crystalline lactitol product and use thereof” (Xyrofin Oy, priority 2000, dated 2002).
Like-named read-outs stand apart in the source and are kept apart here.

Tests used:
Type in all cases: physicochemical
[1] = Tablet hardness (Key Instruments hardness tester); settings: for Hardness / Hardness (in brackets): tablet; for Hardness: 24 hours after production; for Hardness (in brackets): analysis performed during production; for Maximum hardness: tablets over the range of compression forces
Experimental: (§1) The material under evaluation was mixed in a laboratory scale Turbula mixer for 2 minutes with 0.5% magnesium stearate as lubricant. The mixed sample was then tabletted on a Manesty 2C single punch press using a 15 mm diameter flat-faced bevelled edge punch. The compression force was adjusted by altering the drop of the top punch. The compression force is indicated by an arbitrary figure. The higher the number, the greater the compression. These figures can only be used as a comparison for each series of compressions. As soon as the material is changed or any of the machine settings are altered the numbers cannot be compared. The adjustment is such that it cannot be exactly reproduced, therefore, these figures should only be seen as a means of differentiating between samples and indicating either increasing or decreasing compression force. Tablet hardness was measured using a Key Instruments tablet hardness tester which measures the force required to break the tablet across its diameter. Ten tablets were tested and an average reading recorded.

[2] = Water content (Karl Fischer)
Experimental: The water content of the microcrystalline lactitol product was analyzed by the Karl Fischer method and the melting behaviour was measured by differential scanning calorimetry (DSC).
Moisture was measured using coulometric Karl Fischer titration

[3] = Flowability
Experimental: (§2) Flowability: A 500 g sample was poured to a 500 ml measuring cylinder. The sample was tapped 10 times, levelled and the amount of the sample was weighed.

[4] = Viscosity of chocolate on storage (Haake RV20 viscometer); settings: chocolate made with the lactitol, held at 50° C. for one week
Experimental: (§3) The milk powder, microcrystalline lactitol, Litesse II (modified polydextrose), vanillin and cocoa liquor were mixed in a Stephan mixer with a portion of the cocoa butter. The mixture was passed through a three roll refiner to produce a flake. The flake was mixed again in the Stephan mixer and a farther portion of cocoa butter was added. The mix was re-refined with the pressures increased to produce a flake with an acceptable particle size.
The resulting flakes were stored ready for conching. Prior to conching the flakes were pre-warmed in an oven set to 50° C. The flake was added to a conche with the temperature set to 60° C. On loading the remaining cocoa butter was added to give a final fat content of 35 %. A small amount of the lecithin was added at this stage. The sample was conched for 24 hours. The remaining lecithin was added I hour prior to the removal of the batch from the conche.
For the sake of comparison the procedure was repeated identically with another batch except that the microcrystalline lactitol was replaced by standard crystalline lactitol monohydrate (Lactitol MC, Xyrofin Oy).
The viscosity of the two samples was measured using a Haake RV20 viscometer with an RC20 rheocontroller fitted. […]

[5] = Bulk density; settings: tapped 10 times
Experimental: as §2

[6] = Particle size analysis of chocolate; settings: chocolate made with the lactitol
Experimental: as §3
There was an insignificant increase in the particle size of the chocolate made using microcrystalline lactitol (10-12 μm) compared to the one with lactitol monohydrate (9-10 μm).

[7] = Rate of solution; settings: 100 g in 100 g of water at 20° C., paddle mixer 250 rpm
Experimental: Rate of solution: 100 g of the sample was put in 100 g of water at 20° C. and 40° C. A small paddle mixer, 250 rpm, was used to mix the solution. During the dissolution the refractive index was measured.

[8] = Tablet friability (Key Instruments friability tester); settings: for Friability (10 tabs): tablet, percentage weight loss, dropped 100 times
Experimental: as §1, with “friability” for “hardness”, “friability tester.” for “tablet hardness tester which measures the force required to break the tablet across its diameter.”, “dropped 100 times” for “tested”, “the percentage weight loss” for “an average reading”, “recorded. Any tablets that are badly chipped are removed prior to weighing.” for “recorded.”

[9] = Heat of solution (calorimeter); settings: 40 g in 670 g distilled water at 25° C.
Experimental: Heat of solution: 40 g of the sample was dissolved in 670 g of distilled water at 25° C. The heat of solution was measured with a calorimeter operating in a constant temperature environment.

[10] = Hygroscopicity (humidity cabinet)
Experimental: Hygroscopicity: 10 g of the sample was weighed to a petri dish. The open dish was put into a humidity cabinet. The change in weight was measured. The humidity cabins at 25° C. and relative humidity 60% and at 40° C. and relative humidity 70% were used.

[11] = Particle size distribution by sieve analysis; settings: for Coefficient of variation: of particle size
Source text: Particle size distribution: Sieve analysis was used to determine the particle size.

[12] = compression 32.5, listed as Microcrystalline Lactitol Sample
[13] = compression 33, listed as Microcrystalline Lactitol Sample
[14] = compression 33.5, listed as Microcrystalline Lactitol Sample
[15] = compression 34, listed as Microcrystalline Lactitol Sample

## OC[C@@H](O)[C@@H](O[C@@H]1O[C@H](CO)[C@H](O)[C@H](O)[C@H]1O)[C@H](O)[C@@H](O)CO [microcrystalline lactitol, lactitol]
[1]; compression 32 (arbitrary figure)
  Hardness: 90 N
[1]; compression 32
  Hardness (in brackets): 85 N
[1]; compression 32.5 (arbitrary figure), listed as Microcrystalline Lactitol Sample
  Hardness: 156 N
[1]; [12]
  Hardness (in brackets): 137 N
[1]; compression 33 (arbitrary figure), listed as Microcrystalline Lactitol Sample
  Hardness: 252 N
[1]; [13]
  Hardness (in brackets): 257 N
[1]; compression 33.5 (arbitrary figure), listed as Microcrystalline Lactitol Sample
  Hardness: 319 N
[1]; [14]
  Hardness (in brackets): (301) N
[1]; compression 34 (arbitrary figure), listed as Microcrystalline Lactitol Sample
  Hardness: 134 N
[1]; [15]
  Hardness (in brackets): (335) N
[1]; compression 34.5 (arbitrary figure)
  Hardness: 330 N
[1]; compression 34.5
  Hardness (in brackets): (344) N
[2]; Karl Fischer method
  Water content of the product: 3.5%
[2]; coulometric Karl Fischer titration
  Moisture: 5.1%
[3]
  Flowability: 17 s
[4]
  Viscosity change of chocolate on storage: no significant increase in viscosity
[5]
  Bulk density: 325 g/500 ml
[6]
  Particle size of the chocolate: 10-12 μm
[7]
  Time to dissolve: 4 min
[8]; compression 32
  Friability (10 tabs): 1.31%
[8]; [12]
  Friability (10 tabs): 0.32%
[8]; [13]
  Friability (10 tabs): 0.22%
[8]; [14]
  Friability (10 tabs): 0.5%
[8]; [15]
  Friability (10 tabs): 0.38%
[8]; compression 34.5
  Friability (10 tabs): 0.69%
[9]
  Heat of solution: 15.4 cal/g
[10]; 25° C. and 60% relative humidity
  Water sorption: 0.05%
[10]; 40° C. and 70% relative humidity
  Water sorption: 0.11%
[11]
  Mean particle size: 0.29 mm
  Sieve analysis 0: 1.6
  Sieve analysis >0.100 mm: 13.0
  Sieve analysis >0.180 mm: 21.1
  Sieve analysis >0.250 mm: 21.6
  Sieve analysis >0.315 mm: 31.5
  Sieve analysis >0.450 mm: 8.3
  Sieve analysis >0.560 mm: 2.3
  Sieve analysis >0.710 mm: 0.6
  Coefficient of variation: 39

## OC[C@@H](O)[C@@H](O[C@@H]1O[C@H](CO)[C@H](O)[C@H](O)[C@H]1O)[C@H](O)[C@@H](O)CO [lactitol monohydrate]
[1]; listed as crystalline lactitol monohydrate, monohydrate
  Maximum hardness: < 70 N
[3]; monohydrate
  Flowability: 23 s
[4]; monohydrate
  Viscosity change of chocolate on storage: considerable thickening
[5]; monohydrate
  Bulk density: 360 g/500 ml
[6]; monohydrate
  Particle size of the chocolate: 9-10 μm
[7]; listed as the monohydrate, monohydrate
  Time to dissolve: about 5 minutes
[8]; tablets, all compression forces
  Friability results (in words): all of the tablets totally disintegrating during the test
[9]; monohydrate
  Heat of solution: 15.6 cal/g
[10]; 25° C. and 60% relative humidity, listed as the monohydrate, monohydrate
  Water sorption: 0.02%
[10]; 40° C. and 70% relative humidity, listed as the monohydrate, monohydrate
  Water sorption: 0.04%
[11]; monohydrate
  Mean particle size: 0.47 mm
  Sieve analysis 0: 0.0
  Sieve analysis >0.100 mm: 0.7
  Sieve analysis >0.180 mm: 4.8
  Sieve analysis >0.250 mm: 15.1
  Sieve analysis >0.315 mm: 25.8
  Sieve analysis >0.450 mm: 20.6
  Sieve analysis >0.560 mm: 17.9
  Sieve analysis >0.710 mm: 15.2
  Coefficient of variation: 30

## OC[C@@H](O)[C@@H](O[C@@H]1O[C@H](CO)[C@H](O)[C@H](O)[C@H]1O)[C@H](O)[C@@H](O)CO [Granulated Lactitol, lactitol]
[1]; compression 32.5 (arbitrary figure)
  Hardness: 70 N
[1]; compression 32.5
  Hardness (in brackets): 82 N
[1]; compression 33 (arbitrary figure)
  Hardness: 139 N
[1]; compression 33
  Hardness (in brackets): 133 N
[1]; compression 33.5 (arbitrary figure)
  Hardness: 193 N
[1]; compression 33.5
  Hardness (in brackets): 213 N
[1]; compression 34 (arbitrary figure)
  Hardness: 240 N
[1]; compression 34
  Hardness (in brackets): 307 N
[1]
  Maximum hardness: 240 N
[8]; compression 32.5
  Friability (10 tabs): 4.7%
[8]; compression 33
  Friability (10 tabs): 1.79%
[8]; compression 33.5
  Friability (10 tabs): 1.08%
[8]; compression 34
  Friability (10 tabs): 0.34%
